Test results reported in US20230414625A1, “Combination Antibacterial Composition and Short-Course Antibacterial Regimen” (The Global Alliance for TB Drug Development, Inc., priority 2015, published 2023).
Where two headings read alike, the source gives them in different places.

Key:
[1] = system: Mycobacterium tuberculosis H37Rv; assay type: in vivo
[2] = system: Gram-positive and Gram-negative bacteria; settings: cited from earlier work
cytochrome P450 = settings: cited from earlier work
[3] = Pharmacokinetics of oxazolidinones after single oral dose, plasma LC/MS; assay type: in vivo, BALB/c mice
Experimental: Pharmacokinetics of oxazolidinones. Uninfected female BALB/c mice weighing approximately 20 g received single doses of SZD (50 mg/kg), LZD (100 mg/kg), TZD (10 or 20 mg/kg) or AZD (50 or 200 mg/kg). Three mice per dose per time point were sampled by cardiac puncture at 0.5, 1, 2, 4, 8 and 24 hours post-dose (plus an additional 16 hour time point for AZD). Plasma drug concentrations were quantified by a validated LC/MS method performed at AstraZeneca (for AZD only) (14) or Rutgers New Jersey Medical School (for other oxazolidinones). Standards for the different oxazolidinones were provided by the sponsors. At Rutgers, analytes of interest were extracted by combining 20 μl of mouse plasma with 20 μl of acetonitrole:water (1:1), and 180 μl of methanol:acetonitrile (1:1) containing 10 mg/ml of verapamil (Sigma-Aldrich) as internal standard. The mixture was vortexed and centrifuged, and 100 μL of the supernatant was recovered and combined with 10 μL of water for analysis. LC/MS-MS analysis was performed with an Agilent 1260 LC-system coupled to an AB Sciex 4000 Q-trap Mass Spectrometer (positive mode, electrospray ionization), and an Agilent column SB-C8, 2.1×30 mm, 3.5 μm, with the column temperature fixed at 24° C. Mobile phase A was 0.1% formic acid in 100% H2O and mobile phase B was 0.1% formic acid in 100% acetonitrile. Injection volumes were routinely 2 μl. The Mass Selective Detector was set to MRM (multiple reaction monitoring) mode using positive polarity ionization, monitoring for the ions of interest SZD (m/z 354.12/312.04), SZD-M1(370.13/238.12), LZD(338.00/235.00), and TZD(371.12/343.00) and the internal standard (m/z 455.4/165.2). The lower limit of quantification for all oxazolidinones was […]. PK parameters were determined by non-compartmental analysis using WinNonlin 6.4 (Certara, Princeton, NJ).

[4] = Example 1, lung, 1 month of treatment, D0 count 6.17±0.27, PMD 50 mg/kg, LZD 100 mg/kg, SZD 50 mg/kg
[5] = female, BALB/c, mouse, in vivo, single oral dose 50 mg/kg, mean, plasma, read-out: AUC0-24 hr
[6] = female, BALB/c, mouse, in vivo, single oral dose 50 mg/kg, mean, plasma, read-out: Cmax
[7] = female, BALB/c, mouse, in vivo, single oral dose 50 mg/kg, mean, plasma, read-out: Tmax
[8] = female, BALB/c, mouse, in vivo, single oral dose 50 mg/kg, mean, plasma, read-out: t1/2 (converted)
[9] = female, BALB/c, mouse, in vivo, po, 100 mg/kg
[10] = M1 metabolite after single oral dose of sutezolid 50 mg/kg, mean, plasma
[11] = female, BALB/c, mouse, in vivo, po, 10 mg/kg
[12] = female, BALB/c, mouse, in vivo, po, 20 mg/kg

For `O=[N+]([O-])c1cn2c(n1)OCC(OCc1ccc(OC(F)(F)F)cc1)C2` (stereo in doubt) [PMD, (6S)-2-nitro-6-{[4-(trifluoromethoxy)benzyl]oxy}-6,7-dihydro-5H-imidazo[2,1-b][1,3]oxazine], the “Mean (±SD) log10 CFU count at M1” value [1, 4] is listed as 4.57 ± 0.22 log10 CFU, the “activity against a broad range of Gram-positive and Gram-negative bacteria” value [2] is listed as “no significant activity” and the “cytochrome P450 interactions” value (cytochrome P450) is listed as “no significant cytochrome P450 interactions”.

In the case of `O=C([C@@H](O)CO)N1CC=C(c2c(F)cc(N3C[C@H](COc4ccon4)OC3=O)cc2F)CC1` [AZD], the “predicted AUC0-24 h” value ([3]; 125 mg/kg dose, interpolated between the 50 and 200 mg/kg doses) is reported as 160000 to 190000 ng·h/mL, the AUC(0-t) [3, 5] is reported as 74800 ng·h/mL and the Cmax [3, 6] is reported as 20400 ng/mL. The Tmax [3, 7] was 42 min, the half-life [3, 8] was 144 min and the AUC(0-t) ([3]; female, BALB/c, mouse, in vivo, single oral dose 200 mg/kg, mean, plasma, read-out: AUC0-24 hr) was 220000 ng·h/mL. The Cmax ([3]; female, BALB/c, mouse, in vivo, single oral dose 200 mg/kg, mean, plasma, read-out: Cmax) was 31400 ng/mL, the Tmax ([3]; female, BALB/c, mouse, in vivo, single oral dose 200 mg/kg, mean, plasma, read-out: Tmax) was 42 min and the half-life ([3]; female, BALB/c, mouse, in vivo, single oral dose 200 mg/kg, mean, plasma, read-out: t1/2 (converted)) was 516 min.

In the case of `COc1nc2ccc(Br)cc2cc1[C@@H](c1ccccc1)[C@@](O)(CCN(C)C)c1cccc2ccccc12` [BDQ, (1R, 2S)-1-(6-bromo-2methoxy-3-quinolinyl)-4-(dimethylamino)-2-(1-naphthalenyl)-1-phenyl-2-butanol compound with fumaric acid (1:1)], the “Mean (±SD) log10 CFU count at M1” value [1, 4] is reported as 3.24 ± 0.25 log10 CFU.

In the case of `CC(=O)NC[C@H]1CN(c2ccc(N3CCOCC3)c(F)c2)C(=O)O1` [LZD, (S)—N-[[3-[3-Fluoro-4-(4morpholinyl)phenyl]-2-oxo-5-oxazolidinyl]methyl]-acetamide], the “Mean (±SD) log10 CFU count at M1” value ([1]; in vivo) is reported as 4.97 ± 0.26 log10 CFU, the Cmax [3, 9] is reported as 81900 ng/mL and the Tmax [3, 9] is reported as 30 min. The AUC(0-t) ([3]; female, BALB/c, mouse, in vivo, po, 100 mg/kg, AUC0-24 h) was 244000 ng·h/mL, the AUC(0-t) ([3]; female, BALB/c, mouse, in vivo, po, 100 mg/kg, AUC0-24 hr) was 244000 ng·h/mL and the half-life ([3]; female, BALB/c, mouse, single oral dose 100 mg/kg, mean, plasma, read-out: t1/2 (converted)) was 180 min.

In the case of `CC(=O)NC[C@H]1CN(c2ccc(N3CCSCC3)c(F)c2)C(=O)O1` [SZD, sutezolid], the “Mean (±SD) log10 CFU count at M1” value [1, 4] is reported as 3.85 ± 0.37 log10 CFU, the AUC(0-t) [3, 5] is reported as 3360 ng·h/mL and the Cmax [3, 6] is reported as 1290 ng/mL. It also gave a Tmax [3, 7] of 30 min and a half-life [3, 8] of 168 min.

For `CC(=O)NC[C@H]1CN(c2ccc(N3CC[S+]([O-])CC3)c(F)c2)C(=O)O1` [Sutezolid M1], the AUC0-24 hr [3, 10] was 31945 ng·h/mL, the Cmax [3, 10] was 15233 ng/mL and the Tmax [3, 10] was 30 min. For the same molecule, the “Cmax relative to SZD parent” value ([3]; after oral SZD 50 mg/kg) was “approximately 10 times” and the “mean AUC0-24 h relative to SZD parent” value ([3]; after oral SZD 50 mg/kg) was “approximately 10 times”.

In the case of `Cn1nnc(-c2ccc(-c3ccc(N4C[C@H](CO)OC4=O)cc3F)cn2)n1` [TZD, tedizolid], the AUC(0-t) ([3]; female, BALB/c, mouse, in vivo, 10 mg/kg, total drug AUC0-24 h) is reported as 40000 ng·h/mL, the Cmax [3, 11] is reported as 6420 ng/mL and the Tmax [3, 11] is reported as 42 min. It also gave a half-life [3, 11] of 180 min, an AUC(0-t) ([3]; female, BALB/c, mouse, in vivo, po, 10 mg/kg, AUC0-24 hr) of 40400 ng·h/mL and a Cmax [3, 12] of 11400 ng/mL. The Tmax [3, 12] was 30 min, the half-life [3, 12] was 234 min and the AUC(0-t) ([3]; female, BALB/c, mouse, in vivo, po, 20 mg/kg, AUC0-24 hr) was 77700 ng·h/mL.
